Legend:
[1] = system: CQ-sensitive P. falciparum strain (3D7); experiment: P. falciparum LDH activity, CQ with or without PI, 3D7; format: cell-based, Plasmodium falciparum
Procedure: (§1) A fractional inhibitory concentration (FIC) was then calculated as drug EC90 of drug A in combination with drug 2/EC90 of drug B alone. The effect was considered to be synergistic when the sum of FICs was ≦0.5.
(§2) This assay is based on the principle that plasmodial lactate dehydrogenase (LDH) can use 3-acetylpyridine NAD (APAD) as a coenzyme, which is converted to APADH during lactate oxidation. All samples for LDH determination were measured spectrophotometrically at 650 nm. For these measurements, 10-50 μl of the malaria sample was added to the Mastat reagent, which is an optimized formulation for parasite LDH detection. The samples consisted of malaria cultures. All aliquots were added to 0.2 ml of the Malstat reagent using a 96-well microtiter plate format. The formation of APADH was determined at 650 nm using a multiwavelength plate reader. Each well of a test microtiter plate was automatically measured at 30-sec. intervals, and the individual data points were stored and subsequently plotted with a software program. The spectrophotometric assessment of LDH activity was facilitated by adding NBT (0.24 mM) and PES (0.033 mM) to Malstat reagent. As APADH is formed, the NBT is reduced and forms a formazan product that is blue and can be detected visually and measured at 650 nm. This assay is specific for parasitic LDH and is not influenced by the human enzyme. […]

[2] = system: HIV-1 IIIB; experiment: acute infection assay, HIV-1 p24 ELISA, MT-4 cells; format: cell-based; details: Human immunodeficiency virus 1, MT4; HIV-1 IIIB-infected MT-4 cells; data not shown
Source text: (§3) Laboratory-adapted HIV-1IIIB and HIV-2CBL/20 strans, the primary isolates HIV-1UG3 (Clade A, R5) and HIV-1VI 829 (Clade C, R5), both obtained from antiretroviral-naive subjects were used. These viruses are fully described in the paper by Savarino A. et al. referenced above. The HIV-1PAVIA12 isolate was also used. It was donated by Dr. Maurizia Debiaggi, University of Pavia, Italy, who also performed its genotypic analysis. It belongs to Clade B and was isolated from an individual with HAART failure. […] Viral stocks were titrated biologically by the 50% endpoint dilution method, using MT-2 cells (laboratory strains) or PHA-activated peripheral blood mononuclear cells (PBMC) (primary isolates).
(§4) In acute infection assays, the appropriate cell types were incubated at 37° C. for 2 h with the viral stock suspensions at a multiplicity of infection (MOI) of approximately 0.1, unless otherwise specified. After three washes, cells were incubated in fresh culture medium for 7 days at 37° C., and cell-free supernatants at different intervals post-infection were harvested for ELISA measurement of HIV-1 p24 (NEN Life Science Prod., Boston Mass.) or HIV-2 p27 (Coulter, Hialeah, Fla.) (26, 33).
A fractional inhibitory concentration (FIC) was then calculated as drug EC90 of drug A in combination with drug 2/EC90 of drug B alone. The effect was considered to be synergistic when the sum of FICs was ≦0.5. […]

[3] = system: P. falciparum (3D7, Ibginovia); experiment: P. falciparum LDH activity, protease inhibitors alone; format: cell-based, Plasmodium falciparum; details: PI alone, 48 h, clinically observable concentrations
Procedure: Results are shown as a percentage of control values.
(§5) Ibginovia is an isolate obtained at the Istituto Superiore di Sanità, Rome, Italy, positive for mutations in the codons K76 and A220 of the pfcrt gene conferring CQ resistance. The parasite's origin is Nigeria. All parasites were maintained in vitro in RPMI 1640 medium to which was added human type A red blood cells (RBC) and 10% heat-inactivated human serum. All cultures were placed in a humidified incubator at 37° C. with a gas-controlled environment of 3% O2, 6% CO2, and 91% N2 and fed according to established procedures.
as §2, with “The samples consisted of malaria cultures. All aliquots were added to 0.2 ml of the Malstat reagent using a 96-well microtiter plate format.” left out, “The spectrophotometric assessment of LDH activity was facilitated by adding NBT (0.24 mM) and PES (0.033 mM) to Malstat reagent.” left out, “nm.” for “nm. This assay is specific for parasitic LDH and is not influenced by the human enzyme.”

[4] = system: UG3 (HIV-1 Clade A); experiment: infection of PBMC with primary isolate UG3, p24; format: cell-based; details: without CQ
Source text: as §3, §4
(§6) Tests were conducted to evaluate the concentrations of each drug in the different combinations that produced 90% inhibition of HIV-1 replication. For each drug combination, the FIC was determined. […]

[5] = system: CQ-resistant P. falciparum strain (W2); experiment: P. falciparum LDH activity, CQ with or without PI, W2; format: cell-based, Plasmodium falciparum
Procedure: as §1, §2

[6] = system: primary HIV-1 isolates; format: cell-based; details: 1 μM CQ; data not shown
Source text: as §3, §4, §6

[7] = system: CQ-resistant P. falciparum field isolate (Ibginovia); experiment: P. falciparum LDH activity, CQ with or without PI, Ibginovia; format: cell-based, Plasmodium falciparum; details: PI with CQ, 48 h; PI at sub-optimally inhibiting concentration
Source text: In order to illustrate typical results, data are shown as a mean ±S.D. optical density (O.D.) at the end of a reaction mediated by plasmodial lactate dehydrogenase (LDH), as described in the Materials and Methods of the EXAMPLES section. The O.D. values are directly proportional to P. falciparum cell viability.
as §5, with “All cultures were placed in a humidified incubator at 37° C. with a gas-controlled environment of 3% O2, 6% CO2, and 91% N2 and fed according to established procedures.” left out
This assay is based on the principle that plasmodial lactate dehydrogenase (LDH) can use 3-acetylpyridine NAD (APAD) as a coenzyme, which is converted to APADH during lactate oxidation. All samples for LDH determination were measured spectrophotometrically at 650 nm. […] The formation of APADH was determined at 650 nm using a multiwavelength plate reader. Each well of a test microtiter plate was automatically measured at 30-sec. intervals, and the individual data points were stored and subsequently plotted with a software program. […] As APADH is formed, the NBT is reduced and forms a formazan product that is blue and can be detected visually and measured at 650 nm. […]

[8] = system: P. berghei; experiment: murine malaria model, Balb/c mice infected with P. berghei; format: in vivo, Plasmodium berghei; details: 50 or 150 mg/kg intragastrically
Procedure: FIG. 6. Antimalarial effects of RTV in mice infected with Plasmodium berghei.
FIG. 6A. Effects of RTV (50 mg/kg) on P. berghei growth in Balb/c mice. Results are shown as an average ±S.D. of the percentage of parasitized red blood cells at different days of follow-up.
FIG. 6B. Effects of RTV (50 mg/kg) on survival of mice infected with P. berghei. Results are shown as Kaplan Meyer curves and the P value for difference in survival is reported.
FIG. 6C. Effects of RTV (150 mg/kg) on P. berghei growth in Balb/c mice. Results are shown as an average ±S.D. of the percentage of parasitized red blood cells at different days of follow-up.
FIG. 6D. Effects of RTV (150 mg/kg) on survival of mice infected with P. berghei. Results are shown as Kaplan Meyer curves and the P value for difference in survival is reported.
Parasitemia was determined by light microscopy using Giemsa-stained thin smears and with fluorescence microscopy using the dye benzothiocarboxypurine.
To evaluate the effects of a PI in an animal model of malaria, Balb/c mice were inoculated intraperitoneally with P. berghei and then divided into three groups: 1) mock-treated with an intragastric inoculation of phosphate-buffer saline (PBS), 2) treated intragastrically with the ritonavir diluent (i.e., a 47% alcoholic solution) in the absence of ritonavir (placebo), and 3) treated intragastrically with 50 or 150 mg/kg.

In the case of `CC(C)(C)NC(=O)[C@@H]1CN(Cc2cccnc2)CCN1C[C@@H](O)C[C@@H](Cc1ccccc1)C(=O)N[C@H]1c2ccccc2C[C@H]1O` [IDV, indinavir], the “sum of FICs” value ([1]; CQ+PI combination, 3D7 strain) is reported as > 0.5, the “effects of IDV on CQ-response” value ([1]; IDV (5 μM) with CQ, compared with CQ-resistant strains) is reported as “less dramatic” and the EC50 [2] is reported as ~10 nM. The “P. falciparum growth (LDH activity)” value [3] was “dose-dependently inhibited P. falciparum growth”, the “p24 levels in supernatants” value ([4]; 100 nM IDV, 5 days after infection) was “typical peak in the p24 levels in supernatants” and the “IDV concentration at which inhibitory effects were visible” value [4] was 1 µM. For the same compound, the “sum of FICs” value ([5]; CQ+PI combination, W2 strain, ≦0.5 indicates synergism) was ≤ 0.5 and the “response to CQ in CQ-resistant P. falciparum” value ([5]; IDV (5 μM) with CQ, 48 h) was “restored the response to CQ”.

`CCN(CC)CCCC(C)Nc1ccnc2cc(Cl)ccc12` (stereo not shown) [CQ, Chloroquine] was tested, and the “inhibitory effect of CQ alone” value [6] was “minimal”.

`CC(C)c1nc(CN(C)C(=O)N[C@H](C(=O)N[C@@H](Cc2ccccc2)C[C@H](O)[C@H](Cc2ccccc2)NC(=O)OCc2cncs2)C(C)C)cs1` [RTV, ritonavir] was tested, and the “P. falciparum growth (LDH activity)” value [3] was “dose-dependently inhibited P. falciparum growth”, the “response to CQ in CQ-resistant P. falciparum” value [7] was “restored the response to CQ” and the “parasite multiplication in mice” value ([8]; Balb/c mice) was “dose-dependently retarded parasite multiplication in mice”. For the same compound, the “survival of treated mice” value ([8]; Kaplan-Mayer curves) was “increased survival of treated mice in a significant manner”.
